Test results reported in ChEMBL document CHEMBL1201862, “PubChem BioAssay data set” (2004).
Activity calls are given as the source filed them.

Columns and labels:
Nonstructural protein 1 = Nonstructural protein 1 (Influenza A virus, UniProt Q194T2); type: functional, Influenza A virus (A/California/07/2009(H1N1))
[1] = biological target: T1, Microphthalmia-associated transcription factor (Homo sapiens, UniProt O75030); experiment: reducers of TRPM1 reporter luminescence, concentration series – cell-based, SK-MEL-5, cherry-picked, set 3, MITF inhibitor project, dose response (AID 493073); type: functional;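 further: SK-MEL-5 melanoma cells with luciferase driven by the MITF target TRPM1 promoter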
T1 sequence (O75030 whole entry): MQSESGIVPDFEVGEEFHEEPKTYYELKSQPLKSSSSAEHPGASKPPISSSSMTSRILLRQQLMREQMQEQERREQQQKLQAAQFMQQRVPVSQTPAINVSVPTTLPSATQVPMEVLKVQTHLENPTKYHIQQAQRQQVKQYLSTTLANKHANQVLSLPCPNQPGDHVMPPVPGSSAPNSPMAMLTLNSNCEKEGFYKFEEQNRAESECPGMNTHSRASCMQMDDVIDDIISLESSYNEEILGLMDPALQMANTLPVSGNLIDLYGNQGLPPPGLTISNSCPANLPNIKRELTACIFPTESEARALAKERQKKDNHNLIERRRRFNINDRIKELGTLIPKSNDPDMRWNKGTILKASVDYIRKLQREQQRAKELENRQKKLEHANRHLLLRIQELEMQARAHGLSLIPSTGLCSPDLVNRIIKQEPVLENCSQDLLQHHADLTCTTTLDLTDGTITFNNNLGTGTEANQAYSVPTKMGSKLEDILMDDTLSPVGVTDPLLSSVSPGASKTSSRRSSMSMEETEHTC

[2] = biological target: T2, Serine/threonine-protein phosphatase (Candida dubliniensis (strain CD36 / CBS 7987 / NCPF 3949 / NRRLY-17841) (Yeast), UniProt B9W6M3); experiment: blockers of CaCl2-induced CDRE-lacZ signaling – S. cerevisiae, luminescence, secondary, dose response (AID 2388); type: functional, cell-based;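 further: yeast reporter cells carrying a calcineurin-responsive lacZ construct stimulated with calcium chloride; luminescent beta-galactosidase reporter signal in whole cells rather than isolated phosphatase activity; potency for inhibition where a drop in reporter signal means calcineurin blockade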
T2 sequence (B9W6M3 whole entry): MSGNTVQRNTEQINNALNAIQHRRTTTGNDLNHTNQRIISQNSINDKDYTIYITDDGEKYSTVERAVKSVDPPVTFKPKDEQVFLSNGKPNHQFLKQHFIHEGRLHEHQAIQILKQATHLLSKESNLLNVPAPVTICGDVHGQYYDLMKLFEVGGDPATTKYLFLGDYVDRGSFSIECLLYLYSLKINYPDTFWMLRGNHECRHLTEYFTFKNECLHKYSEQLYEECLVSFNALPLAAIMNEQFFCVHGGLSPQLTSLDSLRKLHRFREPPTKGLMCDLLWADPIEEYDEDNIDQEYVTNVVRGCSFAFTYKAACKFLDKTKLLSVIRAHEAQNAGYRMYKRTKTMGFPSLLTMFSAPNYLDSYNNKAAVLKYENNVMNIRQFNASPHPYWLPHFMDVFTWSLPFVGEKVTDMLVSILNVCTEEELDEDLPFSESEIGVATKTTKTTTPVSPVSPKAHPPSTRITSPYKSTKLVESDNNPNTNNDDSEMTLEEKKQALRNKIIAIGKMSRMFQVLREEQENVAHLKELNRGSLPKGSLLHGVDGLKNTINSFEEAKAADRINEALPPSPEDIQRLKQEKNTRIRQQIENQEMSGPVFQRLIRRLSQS

[3] = biological target: ATP-dependent molecular chaperone HSP82 (Candida albicans (strain WO-1) (Yeast), UniProt C4YTQ8); experiment: steroid-induced GRE reporter decrease in yeast – S. cerevisiae, luminescence, Hsp90 inhibitor project, dose response (AID 2400); type: functional, cell-based;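 further: beta-galactosidase luminescence from glucocorticoid response element reporter as proxy for Hsp90 function; inhibitor potency where signal loss means Hsp90 inhibition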
ATP-dependent molecular chaperone HSP82, sequence (C4YTQ8 whole entry): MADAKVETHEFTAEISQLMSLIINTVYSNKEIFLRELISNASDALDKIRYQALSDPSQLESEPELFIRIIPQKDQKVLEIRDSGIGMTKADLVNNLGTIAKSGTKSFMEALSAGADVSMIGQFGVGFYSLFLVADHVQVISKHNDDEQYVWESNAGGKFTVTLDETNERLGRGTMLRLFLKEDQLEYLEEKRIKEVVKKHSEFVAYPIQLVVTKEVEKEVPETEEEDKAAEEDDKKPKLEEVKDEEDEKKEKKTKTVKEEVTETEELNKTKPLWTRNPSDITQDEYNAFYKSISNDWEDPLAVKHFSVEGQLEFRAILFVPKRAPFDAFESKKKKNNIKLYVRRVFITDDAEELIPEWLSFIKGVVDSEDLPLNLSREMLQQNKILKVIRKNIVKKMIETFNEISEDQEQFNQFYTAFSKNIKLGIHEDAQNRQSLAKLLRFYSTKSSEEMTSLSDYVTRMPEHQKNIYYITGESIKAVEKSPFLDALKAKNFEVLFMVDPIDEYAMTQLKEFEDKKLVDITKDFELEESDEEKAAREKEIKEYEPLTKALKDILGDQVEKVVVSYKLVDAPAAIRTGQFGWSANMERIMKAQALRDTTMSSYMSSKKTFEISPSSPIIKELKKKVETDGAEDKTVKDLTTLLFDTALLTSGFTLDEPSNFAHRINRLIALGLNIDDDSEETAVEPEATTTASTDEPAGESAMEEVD

[4] = fluconazole-exposed Candida albicans growth modulators – fluorescence, retest, confirmation (AID 2467); type: functional, cell-based
[5] = NIH-3T3 fibroblast cytotoxicity, dose response, cytotoxicity control, cell-based, fluorescence, Alamar Blue, secondary assay (AID 2327); type: functional;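 further: NIH-3T3 mouse fibroblasts cultured with fluconazole at 8 µg/mL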
[6] = biological target: Heat shock protein HSP 90-alpha (Homo sapiens, UniProt P07900); type: functional, organism-based
Protein Wnt-3a = Protein Wnt-3a (Mus musculus, UniProt P27467); experiment: antagonism of Wnt3a pathway luciferase reporter – Wnt-LIGHT cells, luminescence, selectivity assay for Gli-SUFU antagonist project, dose response (AID 651570); type: functional; conditions: read-out: IC50_Mean;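 further: Wnt-LIGHT reporter cells stimulated with conditioned medium from Wnt3a-producing cells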
Protein Wnt-3a, sequence (P27467 whole entry): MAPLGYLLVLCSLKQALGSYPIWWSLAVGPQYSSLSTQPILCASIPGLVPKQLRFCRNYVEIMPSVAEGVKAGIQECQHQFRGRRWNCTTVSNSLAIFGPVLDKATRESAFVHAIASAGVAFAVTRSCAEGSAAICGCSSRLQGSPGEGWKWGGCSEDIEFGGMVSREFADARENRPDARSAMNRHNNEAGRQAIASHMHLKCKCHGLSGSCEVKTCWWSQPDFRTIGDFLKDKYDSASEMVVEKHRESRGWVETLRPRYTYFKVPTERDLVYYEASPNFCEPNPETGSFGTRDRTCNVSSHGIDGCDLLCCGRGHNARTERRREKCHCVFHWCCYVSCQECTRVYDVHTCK

[7] = biological target: T3, High affinity choline transporter 1 (Homo sapiens, UniProt Q9GZV3); experiment: human choline transporter blockers, potency – cell-based, 5-point CRC, membrane potential dye, dose response (AID 504840); type: functional
T3 sequence (Q9GZV3 whole entry): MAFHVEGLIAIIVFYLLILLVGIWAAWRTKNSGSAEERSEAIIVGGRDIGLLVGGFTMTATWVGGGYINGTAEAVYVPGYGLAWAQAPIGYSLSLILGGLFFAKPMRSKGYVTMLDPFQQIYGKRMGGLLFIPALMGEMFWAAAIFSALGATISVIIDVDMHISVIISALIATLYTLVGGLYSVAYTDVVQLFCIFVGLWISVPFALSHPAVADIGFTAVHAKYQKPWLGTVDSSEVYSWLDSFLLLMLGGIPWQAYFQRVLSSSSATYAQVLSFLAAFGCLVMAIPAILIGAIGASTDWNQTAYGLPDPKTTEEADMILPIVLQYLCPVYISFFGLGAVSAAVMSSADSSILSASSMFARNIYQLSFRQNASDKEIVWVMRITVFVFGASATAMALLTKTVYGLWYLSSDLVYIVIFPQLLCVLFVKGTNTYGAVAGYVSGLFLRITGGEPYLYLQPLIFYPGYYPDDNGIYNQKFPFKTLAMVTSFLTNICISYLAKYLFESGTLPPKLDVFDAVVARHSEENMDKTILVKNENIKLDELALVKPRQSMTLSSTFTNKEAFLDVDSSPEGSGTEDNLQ

[8] = Trypanosoma cruzi growth suppression in host cells – NIH3T3 host cells, beta-gal luminescence, confirmation (AID 2044); type: functional, cell-based;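 further: intracellular parasites grown in NIH/3T3 mouse fibroblasts as host cells; luminescent beta-galactosidase reporter signal from transgenic T. cruzi replicating inside host cells; inhibitors lower the luminescence signal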
[9] = NIH3T3 cell viability loss – ATP luminescence, mouse fibroblasts, counter-screen, dose response (AID 2010); type: functional, cell-based;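 further: cells exposed to compound for about 90 hours before reading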
[10] = reduction of Shn3 3'UTR-driven luciferase in osteoblasts – cell-based, Clone20 osteoblasts, firefly luciferase, cherry-picked, dose response (AID 624132); type: functional;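 further: firefly luciferase luminescence from reporter carrying the Shn3 3'UTR in osteoblasts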
[11] = loss of viability in HepG2 cells – cell-based, CellTiter-Glo, cherry-picked, cytotoxicity control for Shn3 inhibitor project, dose response (AID 624134); type: functional
[12] = non-specific 3'UTR reporter inhibition in Clone20-Shn3RL – cell-based, Renilla luciferase, cherry-picked, counter-screen for Shn3 inhibitor project, dose response (AID 624133); type: functional

Nonstructural protein 1, sequence (Q194T2 whole entry): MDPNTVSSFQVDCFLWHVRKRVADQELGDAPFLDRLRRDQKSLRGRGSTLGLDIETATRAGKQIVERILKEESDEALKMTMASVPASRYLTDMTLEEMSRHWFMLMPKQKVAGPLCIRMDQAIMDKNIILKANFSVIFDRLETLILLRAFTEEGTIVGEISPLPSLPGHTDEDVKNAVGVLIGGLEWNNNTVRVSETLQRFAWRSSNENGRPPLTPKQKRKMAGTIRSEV

Structure (SMILES): CCOC(=O)CC1=NN(c2ccccc2)C(=O)/C1=C\c1ccc(N(C)C)cc1
- IC50 (Nonstructural protein 1): 15.7 µM (active)

Structure (SMILES): O=C(Nc1ccc(OC(F)(F)F)cc1)c1n[nH]cc1[N+](=O)[O-]
- AC50 [1]: 0.601 µM (active)

Structure (SMILES): O=C(Nc1nnc(CCc2ccccc2)s1)c1ccco1
- EC50 [2]: > 180 µM (inactive)
- EC50 [3]: > 150 µM (inactive)
- EC50 [4]: 1.08 µM (active)
- EC50 [5]: > 150 µM (inactive)

Structure (SMILES): O=C(Nc1ccccc1N1CCOCC1)c1ccc([N+](=O)[O-])s1
- AC50 [1]: 12.3 µM (active)
- AC50 [6]: 7.97 µM (active)

Structure (SMILES): S=c1sscc1-c1ccccc1
- IC50 (Nonstructural protein 1): 32.7 µM (active)

Structure (SMILES): C[C@@H]1COC(=O)[C@H](NC(=O)OCC2c3ccccc3-c3ccccc32)C/C=C\C[C@@H](CC(=O)N[C@@H](CO)Cc2ccccc2)C(=O)N1
- IC50 (Protein Wnt-3a): 12.3 µM (active)

Structure (SMILES): O=C(N/N=C/c1cc2ccccc2nc1Cl)[C@H]1C[C@@H]1c1ccccc1
- IC50 (Protein Wnt-3a): 39.9 µM (inactive)

Structure (SMILES): Cn1c(N2CCOCC2)c(/C=N/OC(=O)c2ccc(F)cc2)c2ccccc21
- EC50 [2]: > 180 µM (inactive)
- EC50 [3]: > 160 µM (inactive)
- EC50 [4]: 0.382 µM (active)
- EC50 [5]: > 160 µM (inconclusive)
- IC50 [7]: 15.9 µM (active)
- EC50 [8]: 0.596 µM (active)
- EC50 [9]: 1.98 µM (active)

Structure (SMILES): Sc1nnc(C2CCCCC2)n1/N=C/c1ccc(Br)s1
- EC50 [2]: > 180 µM (inactive)
- EC50 [3]: 18.9 µM (active)
- EC50 [4]: 1.07 µM (active)
- EC50 [5]: > 150 µM (inactive)

Structure (SMILES): C[C@@H]1CC[C@@]2(NC1)O[C@H]1C[C@H]3[C@@H]4CC=C5C[C@@H](O)CC[C@]5(C)[C@H]4CC[C@]3(C)[C@H]1[C@@H]2C
- EC50 [2]: > 180 µM (inactive)
- EC50 [3]: > 160 µM (inactive)
- EC50 [4]: 0.272 µM (active)
- EC50 [5]: > 160 µM (inconclusive)

Structure (SMILES): CCC(=O)NC(c1ccco1)c1cc(Cl)c2cccnc2c1O (stereo unspecified)
- EC50 [2]: > 180 µM (inactive)
- AC50 [10]: 1.31 µM (active)
- EC50 [3]: > 150 µM (inactive)
- EC50 [4]: 0.56 µM (active)
- AC50 [11]: 7.81 µM (active)
- EC50 [5]: 24.9 µM (active)
- AC50 [12]: 3.57 µM (active)
- EC50 [8]: 1.97 µM (active)
- EC50 [9]: 7.21 µM (active)

Structure (SMILES): Cc1cc(C)c[n+](C(C)C(=O)c2ccc(-c3ccccc3)cc2)c1 (stereo unspecified)
- IC50 (Protein Wnt-3a): 8.95 µM (active)
